Experiments:
[1] = target: Cytochrome P450 3A4 (Homo sapiens, UniProt P08684); experiment: Inhibition of CYP3A4; type: ADME
[2] = target: Insulin-like growth factor 1 receptor (Homo sapiens, UniProt P08069)
Chain of Insulin-like growth factor 1 receptor (P08069 31-736 limits assumed): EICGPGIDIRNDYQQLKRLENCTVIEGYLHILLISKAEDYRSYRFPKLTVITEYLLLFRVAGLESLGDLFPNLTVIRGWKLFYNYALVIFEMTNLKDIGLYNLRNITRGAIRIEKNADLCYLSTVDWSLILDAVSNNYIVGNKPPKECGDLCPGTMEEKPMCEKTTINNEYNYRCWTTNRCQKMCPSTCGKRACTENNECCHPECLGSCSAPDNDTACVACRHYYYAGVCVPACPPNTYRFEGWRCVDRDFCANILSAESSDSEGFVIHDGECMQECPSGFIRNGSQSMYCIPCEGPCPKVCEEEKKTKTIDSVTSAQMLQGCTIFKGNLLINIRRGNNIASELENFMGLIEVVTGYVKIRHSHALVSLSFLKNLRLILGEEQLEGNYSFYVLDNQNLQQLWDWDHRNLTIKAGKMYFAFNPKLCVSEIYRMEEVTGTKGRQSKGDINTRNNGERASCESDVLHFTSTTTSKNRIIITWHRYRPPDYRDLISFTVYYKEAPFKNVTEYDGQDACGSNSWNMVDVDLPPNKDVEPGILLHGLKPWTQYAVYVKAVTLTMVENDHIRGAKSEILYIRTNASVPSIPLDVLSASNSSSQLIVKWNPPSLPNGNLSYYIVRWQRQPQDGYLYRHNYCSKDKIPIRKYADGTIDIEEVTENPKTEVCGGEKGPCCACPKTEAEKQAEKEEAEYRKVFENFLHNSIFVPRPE
Chain of Insulin-like growth factor 1 receptor (P08069 741-1367 limits assumed): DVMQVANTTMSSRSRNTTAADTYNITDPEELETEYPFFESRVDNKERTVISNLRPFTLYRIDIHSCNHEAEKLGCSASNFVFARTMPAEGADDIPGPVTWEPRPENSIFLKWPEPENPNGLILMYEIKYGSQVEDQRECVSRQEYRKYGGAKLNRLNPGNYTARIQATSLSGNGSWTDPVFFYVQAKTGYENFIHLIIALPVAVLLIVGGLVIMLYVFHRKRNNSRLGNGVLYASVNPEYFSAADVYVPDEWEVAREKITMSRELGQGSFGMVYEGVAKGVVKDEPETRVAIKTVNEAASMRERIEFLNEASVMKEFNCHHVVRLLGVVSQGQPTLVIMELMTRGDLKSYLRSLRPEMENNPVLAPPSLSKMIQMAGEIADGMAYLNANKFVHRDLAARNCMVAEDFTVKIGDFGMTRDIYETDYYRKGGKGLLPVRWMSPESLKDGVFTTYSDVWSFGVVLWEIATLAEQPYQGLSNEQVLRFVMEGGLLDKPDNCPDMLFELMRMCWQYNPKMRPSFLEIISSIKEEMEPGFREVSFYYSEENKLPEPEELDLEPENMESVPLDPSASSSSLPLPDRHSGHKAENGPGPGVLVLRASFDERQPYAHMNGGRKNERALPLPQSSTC
Description: Inhibition of human recombinant full length IGF1R expressed in mouse 3T3 cells

Chain of Cytochrome P450 3A4 (P08684 whole entry): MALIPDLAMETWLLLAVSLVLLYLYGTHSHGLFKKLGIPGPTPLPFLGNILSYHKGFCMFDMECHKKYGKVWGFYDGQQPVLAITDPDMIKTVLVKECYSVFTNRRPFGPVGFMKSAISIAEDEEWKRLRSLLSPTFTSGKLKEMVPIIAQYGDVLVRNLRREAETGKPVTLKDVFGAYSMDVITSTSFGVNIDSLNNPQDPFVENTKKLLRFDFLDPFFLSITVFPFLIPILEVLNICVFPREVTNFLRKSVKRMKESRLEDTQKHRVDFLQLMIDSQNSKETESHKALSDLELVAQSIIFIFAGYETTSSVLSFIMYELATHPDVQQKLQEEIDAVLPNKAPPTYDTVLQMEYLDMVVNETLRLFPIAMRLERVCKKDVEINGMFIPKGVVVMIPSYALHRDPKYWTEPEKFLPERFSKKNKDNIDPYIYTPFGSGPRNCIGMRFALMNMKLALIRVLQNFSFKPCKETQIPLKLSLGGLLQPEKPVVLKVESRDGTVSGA

Row | SMILES | IC50 [1] [µM] | IC50 [2] [µM]
1 | CN(C)C[C@H]1C[C@@H](c2nc(-c3ccc4ccc(-c5ccccc5)nc4c3)c3c(N)nccn32)C1 | 15 | 
2 | CN(C)[C@H]1C[C@@H](c2nc(-c3ccc4ccc(-c5ccccc5)nc4c3)c3c(N)nccn32)C1 | 19 | 
3 | Nc1nccn2c(C3CCC3)nc(-c3ccc4cccnc4c3)c12 |  | > 10
4 | Nc1nccn2c1c(-c1ccc3ccc(-c4ccccc4)nc3c1)nc2[C@H]1C[C@@H](N2CCOCC2)C1 | 12 | 
5 | Nc1nccn2c1c(-c1ccc3ccc(-c4ccccc4)nc3c1)nc2[C@H]1C[C@H](CN2CCC2)C1 | 17 | 0.042
6 | Nc1nccn2c1c(-c1ccc3ccc(-c4ccccc4)nc3c1)nc2[C@H]1C[C@@H](N2CCCCC2)C1 | 7.5 | 
7 | Oc1nccn2c(C3CCC3)nc(-c3ccc4ccc(-c5ccccc5)nc4c3)c12 |  | > 10
8 | Nc1nccn2c(C3CCC3)nc(-c3ccc4ccc(-c5ccccc5)nc4c3)c12 | 3.4 | 
